Consider one molecule from patent US20020058072A1, “Use of iodide salt as an aphrodisiac” (priority 2000, published 2002).

Molecules are shown by their SMILES.

For the experiment, the system named is human. The experiment can be described thus: Oral administration to an adult human: aphrodisiac effect and increased vaginal lubrication. Type of experiment: in vivo. Particulars: 3 ml of 5M sodium iodide in water added to 20 ml lemon juice plus 1 tbsp sugar; patient. An excerpt:
The terms “aphrodisiac” or “heightened sexual desire”, for the purposes of the present invention, refer to the following physical manifestations including clitoral swelling, nipple erection, contraction of the vaginal musculature, and a general tingling sensation.
Specifically, after oral administration of an iodide salt, the subject experienced increased vaginal lubrication. The term “increased vaginal lubrication”, as used herein, refers to an increased amount of transudate present in the vagina above the amount of transudate present in the vagina above the amount of transudate present in the unstimulated state.
The syrup was administered orally to a human, weighing approximately 165 pounds. About 0.5 to 3.0 teaspoons of the hydriodic acid syrup was admixed with approximately 8 ounces of tap water and then ingested.
To 20 ml of lemon juice are added 3 ml of a 5M solution of sodium iodide in water, and 1 tbsp of sugar is added to the resultant solution.

In the case of `[I-].[Na+]` [sodium iodide], the “reaction observed after administration (arousal, vaginal lubrication)” value was “arousal and increased vaginal lubrication”.
